Experimental data published in patent US11083724B2, “Rimegepant for CGRP related disorders” (Biohaven Pharmaceutical Holding Company Ltd., priority 2018, dated 2021).

System: subjects with Acute Migraines
Experiment: Study 301 (BHV3000-301, NCT03235479): Phase 3 double-blind placebo-controlled trial, rimegepant 75 mg tablet, acute treatment of migraine
Format: in vivo, human
Conditions: for Freedom from MBS at 2 hours / Pain Freedom (pain-free) at 2 hours: N = 543
Experimental: Clinical Trial—BHV3000-301: Phase 3: Double-Blind, Randomized, Placebo-Controlled, Safety and Efficacy Trial of BHV-3000 (Rimegepant) for the Acute Treatment of Migraine (ClinicalTrials.gov Identifier: NCT03235479). A phase 3 clinical study was conducted with 1490 participants, as follows. The purpose of this study was to compare the efficacy of BHV-3000 (rimegepant) versus placebo in subjects with Acute Migraines Study Design • Study Type: Interventional (Clinical Trial) • Actual Enrollment: 1490 participants • Allocation: Randomized • Intervention Model: Parallel Assignment • Intervention Model Description: Double-blind to Sponsor, Investigator and Subject Randomized Controlled Trial • Masking: Triple (Participant, Care Provider, Investigator) • Masking Description: Double-blind to Sponsor, Investigator and Subject • Primary Purpose: Treatment • Official Title: BHV3000-301: Phase 3: Double-Blind, Randomized, Placebo-Controlled, Safety and Efficacy Trial of BHV-3000 (Rimegepant) for the Acute Treatment of Migraine Arms and Interventions Outcome Measures Primary Outcome Measures: • 1. Pain freedom of rimegepant (75 mg tablet) compared with placebo in the acute treatment of migraine will be measured using the number of evaluable subjects that report no pain at 2 hours post-dose. [Time Frame: Two hours post dose] • Pain will be measured on a 4 point Likert scale (0=none, 1=mild, 2=moderate, 3=severe) • 2. Freedom from the most bothersome symptom (MBS) of rimegepant (75 mg tablet) compared with placebo will be measured using the number of evaluable subjects that report the absence of their MBS at 2 hours post-dose. [Time Frame: Two hours post dose] • The MBS (nausea, phonophobia or photophobia) will measured using a binary scale (0=absent, 1=present). Secondary Outcome Measures: • 1. […] [Time Frame: 2 hours-24 hours post-dose] • Sustained Pain Freedom as measured by a 4 point numeric rating scale (None, Mild, Moderate, Severe) • 2. The difference between rimegepant (75 mg tablet) compared to placebo by tabulating the absence of photophobia at 2 hours post-dose in the subset of subjects that reported the presence of photophobia at headache baseline. [Time Frame: 2 hours post-dose] • Photophobia • 3. To evaluate rimegepant (75 mg tablet) compared to placebo by tabulating the number of subjects that report the absence of phonophobia at 2 hours post-dose in the subset of subjects that reported the presence of phonophobia at headache baseline. [Time Frame: 2 hours post-dose] • Phonophobia • 4. To measure the difference between rimegepant (75 mg tablet) compared to placebo on Pain Relief, at 2 hours post-dose, for those that report a pain level of moderate or severe at baseline and then report a pain level of none or mild. [Time Frame: 2 hours post-dose] • Pain Relief as measured by a 4 point numeric rating scale (None, Mild, Moderate, Severe) • 5. Freedom from Nausea by tabulating the number of subjects that report the absence of nausea at 2 hours post-dose in the subset of subjects that reported the presence of nausea at headache baseline. [Time Frame: 2 hours post-dose] • Freedom from Nausea • 6. The difference between rimegepant (75 mg tablet) compared to placebo on the probability of requiring rescue medication using the number of subjects that take rescue medication within […] administration of study medication (BHV3000 or placebo). [Time Frame: up to 24 hours post-dose] • Requiring Rescue Medication • 7. […] [Time Frame: 2 hours-24 hours post-dose] • Sustained Pain Freedom • 8. […] [Time Frame: 2 hours-24 hours post-dose] • Sustained Pain Relief as measured by a 4 point numeric rating scale (None, Mild, Moderate, Severe) • 9. […] [Time Frame: 2 hours-48 hours post-dose] • Sustained Pain Relief as measured by a 4 point numeric rating scale (None, Mild, Moderate, Severe) • 10. […]

[1] = Study 301, single 75 mg tablet, listed as rimegepant

N[C@@H]1c2cccnc2[C@H](OC(=O)N2CCC(n3c(=O)[nH]c4ncccc43)CC2)CC[C@H]1c1cccc(F)c1F [Rimegepant, [(5S,6S,9R)-5-amino-6-(2,3-difluorophenyl)-6,7,8,9-tetrahydro-5H-cyclohepta[b]pyridin-9-yl] 4-(2-oxo-3H-imidazo[4,5-b]pyridin-1-yl)piperidine-1-carboxylate]
SAEs related to the study drug (Study 301): No SAE | bilirubin elevations >2 times ULN (Study 301): No bilirubin elevations | transaminase level >5 times ULN (Study 301): no subject | AE dizziness (Study 301, 4/546): 0.7% | AE nausea (Study 301, 5/546): 0.9% | Serum ALT or AST levels greater than ULN (Study 301, 11/546): 2.0% | functional disability: patients achieving normal function at 2 hours versus placebo (Study 301, P<0.0001): greater proportion | Serious AEs (SAEs) (Study 301, n=2): 0.4% | transaminase level >3 times ULN (Study 301, one subject): 0.2% | Free from MBS at 2 hours, subjects [n/N] (Study 301, single 75 mg tablet): [199/543] | Nausea-free at 2 hours (Study 301, single 75 mg tablet): 46.9% | Nausea-free at 2 hours, subjects [n/N] (Study 301, single 75 mg tablet): [149/318] | Pain relief at 2 hours (Study 301, single 75 mg tablet): 56.0% | Pain relief at 2 hours, subjects [n/N] (Study 301, single 75 mg tablet): [304/543] | Pain-free at 2 hours, subjects [n/N] (Study 301, single 75 mg tablet): [104/543] | Phonophobia-free at 2 hours (Study 301, single 75 mg tablet): 38.6% | Phonophobia-free at 2 hours, subjects [n/N] (Study 301, single 75 mg tablet): [133/345] | Photophobia-free at 2 hours (Study 301, single 75 mg tablet): 34.9% | Photophobia-free at 2 hours, subjects [n/N] (Study 301, single 75 mg tablet): [164/470] | Sustained pain relief, 2-24 hours (Study 301, single 75 mg tablet): 38.9% | Sustained pain relief, 2-24 hours, subjects [n/N] (Study 301, single 75 mg tablet): [211/543] | Freedom from MBS at 2 hours (Study 301, single 75 mg tablet): 36.6% | Pain Freedom (pain-free) at 2 hours (Study 301, single 75 mg tablet): 19.2% | Freedom from MBS at 2 hours [1]: 36.6% | Pain Freedom (pain-free) at 2 hours [1]: 19.2% | Pain relief at 2 hours [1]: 56.0% | sustained pain relief from 2 through 48 hours postdose versus placebo (Study 301, single dose, no rescue medication, P=0.0003): superiority versus placebo | sustained pain freedom from 2 through 48 hours postdose versus placebo (Study 301, single dose, no rescue medication, P=0.013): superiority versus placebo
